In patent US11612595B2, “Compositions and methods for treating rheumatoid arthritis” (Generos Biopharma Ltd., priority 2017, dated 2023):

Experiments:
[1] = weight changes in mouse CIA model; format: in vivo, DBA/1J mice; settings: 5 mg/kg i.p. daily
Experimental: FIGS. 7A and 78 show graphs depicting weight changes in five groups of mouse CIA models under different treatment schemes. DBA/1 mice were randomly divided into 9 groups with 10 mice each group. On day 0 and 21, all of them except blank control group were inoculated with 50 ul collagen plus CFA mixture subcutaneously at back flank near tail. The weights of all 90 mice were monitored 3 times a week throughout the experiment.
(§1) Eight of nine groups (10 mice in each group) of male DBA/1J mice (age 9-10 weeks. H-2q haplotype) were subject to CIA model induction and then to different treatment schemes. The group of mice without CIA model induction was used as a control (Blank). Specifically, Bovine type II collagen (Chondrex) was mixed with Freund's complete adjuvant (CFA) (Sigma) and injected s.c. to flank near tail of the mice twice (the second injection was made 21 days after the first injection) to create CIA model mice. The eight groups of CIA model mice were separated into four prophylactic groups and four therapeutic groups, with each group subjected to different treatments.
(§2) In the four prophylactic groups, daily treatments started from the date when the first CIA induction injection was made. The first of the four prophylactic groups of CIA model mice were treated with 30% PEG300 (containing 4% DMSO-all 30% PEG300 in the application contains 4% DMSO) solution via intraperitoneal injection as controls (Model). The second of the four prophylactic groups of CIA model mice were treated with nicotinohydrazide (Calbiochem) 10 mg/kg in 30% PEG300 solution via intraperitoneal injection (573108 10 mg/kg). The third of the four prophylactic groups of CIA model mice were treated with nicotinohydrazide (Calbiochem) 5 mg/kg in 30% PEG300 solution via intraperitoneal injection (573108 5 mg/kg). The last of the four prophylactic groups of CIA model mice were treated with Tofacitinib (Selleckchem) 5 mg/kg in 30% PEG300 solution via intraperitoneal injection (Tofacitinib 5 mg/kg).
(§3) In the four therapeutic groups, daily treatments started from the date when the second CIA induction injection was made. The first of the four therapeutic groups of CIA model mice were treated with 30% PEG300 solution via intraperitoneal injection as controls (Model). The second of the four therapeutic groups of CIA model mice were treated with nicotinohydrazide (Calbiochem) 10 mg/kg in 30% PEG300 solution via intraperitoncal injection (573108 10 mg/kg). The third of the four therapeutic groups of CIA model mice were treated with nicotinohydrazide (Calbiochem) 5 mg/kg in 30% PEG300 solution via intraperitoneal injection (573108 5 mg/kg). The last of the four therapeutic groups of CIA model mice were treated with Tofacitinib (Selleckchem) 5 mg/kg in 30% PEG300 solution via intraperitoncal injection (Tofacitinib 5 mg/kg).
(§4) The inventors collected data of the weight, and clinical scores of the mice every 2-3 days and performed statistic analysis. The method used in the statistic analysis was Student's t test, unpaired, two-tailed analysis.

[2] = system: collagen-induced arthritis (CIA) model mice; experiment: collagen-induced arthritis (CIA) model mice, clinical scores; format: in vivo, DBA/1J mice; design: key to Pairwise analysis of the difference between groups (clinical scores), vs Model / Pairwise analysis of the difference between groups (clinical scores), S5i 5 mpk vs S5i 10 mpk: p values from pairwise comparisons; settings: for clinical scores compared to Model: 5 mg/kg i.p. daily; for Pairwise analysis of the difference between groups (clinical scores), vs Model: 5 mpk
Description: FIGS. 8A and 8B show graphs depicting clinical score changes in four groups of CIA mouse models under different treatment schemes. In FIG. 8A, different chemicals (DMSO as control for Model group, blank group is left untreated) were daily administered intraperitoneally at the indicated doses from the first injection of the collagen agent. In FIG. 8B, different chemicals were daily administered intraperitoneally from the second injection of collagen agent at the indicated doses. Clinical scores were given double-blindly according to the scoring scheme every 2 days.
FIGS. 9A and 9B show graphs of clinical scores at day 44 for each group, the overall difference analyzed by ANOVA is significant p<0.0001, while the p value between Model and each individual group is labeled above the bar * p<0.05, ** p<0.01.
as §1, §2, §3, §4
The clinical scores were derived according to the scheme in Table 2.

- trend of weight changes, p vs Model ([1]; prophylactic groups): 0.0130
- trend of weight changes, p vs Model ([1]; therapeutic groups): 0.0005
SMILES: C[C@@H]1CCN(C(=O)CC#N)C[C@@H]1N(C)c1ncnc2[nH]ccc12 [Tofacitinib]
- clinical scores compared to Model ([2]; prophylactic groups): reduced clinical scores
- Pairwise analysis of the difference between groups (clinical scores), vs Model ([2]; prophylactic groups, Day 28): 0.0949
- Pairwise analysis of the difference between groups (clinical scores), vs Model ([2]; prophylactic groups, Day 30): 0.0496
- Pairwise analysis of the difference between groups (clinical scores), vs Model ([2]; prophylactic groups, Day 32): 0.0610
- Pairwise analysis of the difference between groups (clinical scores), vs Model ([2]; prophylactic groups, Day 35): 0.0064
- Pairwise analysis of the difference between groups (clinical scores), vs Model ([2]; prophylactic groups, Day 37): 0.0178
- Pairwise analysis of the difference between groups (clinical scores), vs Model ([2]; prophylactic groups, Day 39): 0.0010
- Pairwise analysis of the difference between groups (clinical scores), vs Model ([2]; prophylactic groups, Day 42): 0.0015
- Pairwise analysis of the difference between groups (clinical scores), vs Model ([2]; prophylactic groups, Day 44): 0.0026
- clinical scores compared to Model ([2]; therapeutic groups): reduced clinical scores
- Pairwise analysis of the difference between groups (clinical scores), vs Model ([2]; therapeutic groups, Day 28): 0.0258
- Pairwise analysis of the difference between groups (clinical scores), vs Model ([2]; therapeutic groups, Day 30): 0.0471
- Pairwise analysis of the difference between groups (clinical scores), vs Model ([2]; therapeutic groups, Day 32): 0.0138
- Pairwise analysis of the difference between groups (clinical scores), vs Model ([2]; therapeutic groups, Day 35): 0.0163
- Pairwise analysis of the difference between groups (clinical scores), vs Model ([2]; therapeutic groups, Day 37): 0.0170
- Pairwise analysis of the difference between groups (clinical scores), vs Model ([2]; therapeutic groups, Day 39): 0.0153
- Pairwise analysis of the difference between groups (clinical scores), vs Model ([2]; therapeutic groups, Day 42): 0.0081
- Pairwise analysis of the difference between groups (clinical scores), vs Model ([2]; therapeutic groups, Day 44): 0.0044
